Experimental data as given in patent publication US10087191B2, “Piperidine derivative and preparation method and pharmaceutical use thereof” (Jiangsu Hengrui Medicine Co., Ltd., priority 2015, dated 2018).

Key:
MCF7 cells = assay: Inhibition of the proliferation of MCF7 cells (Cell Titer-Glo); type: cell-based; conditions: Homo sapiens, MCF-7 cells, 72 hours, read-out: IC50 value of inhibition effect on the proliferation of MCF7 cells
Summary of the method: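 Viability by Cell Titer-Glo luminescence; IC50 from signal versus log concentration.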

ERα = ERα (Homo sapiens (Human), UniProt P03372); assay: Degradation effect on ERα in MCF-7 cells (ERα Duoset ELISA); type: cell-based; conditions: MCF-7 cells; read-out: IC50 value of the degradation effect on ERα
Sequence of ERα (P03372 whole entry): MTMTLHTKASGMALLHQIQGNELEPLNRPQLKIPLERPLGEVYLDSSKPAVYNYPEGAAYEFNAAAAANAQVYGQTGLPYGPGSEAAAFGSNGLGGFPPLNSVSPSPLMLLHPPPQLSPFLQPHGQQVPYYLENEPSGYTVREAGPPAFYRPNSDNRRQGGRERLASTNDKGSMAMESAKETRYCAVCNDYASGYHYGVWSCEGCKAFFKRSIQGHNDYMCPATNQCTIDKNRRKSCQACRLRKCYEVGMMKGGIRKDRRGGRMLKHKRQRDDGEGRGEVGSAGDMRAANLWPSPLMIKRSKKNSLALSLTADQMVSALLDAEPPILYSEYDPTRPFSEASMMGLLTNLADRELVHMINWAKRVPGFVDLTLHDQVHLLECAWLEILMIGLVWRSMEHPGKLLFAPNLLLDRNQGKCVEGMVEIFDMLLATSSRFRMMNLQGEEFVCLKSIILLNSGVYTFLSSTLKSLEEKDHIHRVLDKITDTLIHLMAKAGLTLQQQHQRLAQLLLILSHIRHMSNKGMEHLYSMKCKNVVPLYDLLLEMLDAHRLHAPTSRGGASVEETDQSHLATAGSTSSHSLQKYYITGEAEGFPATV
Experimental: In order to determine the degradation effect on ER induced by the compounds of the present invention, the following method was used to determine the degradation effect of the compounds of the present invention on ER.
MCF-7 cell line (TChu 74, Cell Bank of Chinese Academy of Sciences typical culture preservation Committee)
ERα Duoset Kit (#DYC5715E, R&D System)
MCF-7 cells were incubated in DMEM/F-12 medium containing 10% FBS.
On the first day of the experiment, MCF-7 cells were resuspended in DMEM/F-12 medium containing 10% FBS treated by activated carbon, then inoculated into a 48-well plate with a density of 50,000 cells/well and incubated for 22-24 hours.
On the second day of the experiment, the test compound was diluted with medium and added to a 48-well plate. The ERα-capture antibody was diluted to 1 μg/ml with PBS, and added to a 96-well plate at 100 μl/well. The plate was sealed and coated overnight at room temperature.
On the third day of the experiment, the coated 96-well plate was washed twice with PBS, added with a sealing solution (1% BSA in PBS) at 110 μl/well and sealed for 1 hour at room temperature. The 48-well plate was washed once with PBS, and the residual liquid was removed. Then, 60 μl of lysis (6 M urea, 1 mM EDTA, 0.5% Triton X-100, 1 mM PMSF, Protease Inhibitor cocktail) was added to each well. After lysis on ice for 15 minutes, the diluent (1 mM EDTA, 0.5% TritonX-100 dissolved in PBS) was added. The cell-diluted lysate was transferred to a 96-well plate at 100 μl/well, then the plate was incubated at room temperature for 2 hours. The diluted primary antibody was added after the plate was washed 4 times with a washing liquid (PBST). After incubation for 1 hour, the 96-well plate was washed 4 times, and the second antibody was added, then the plate was incubated for 30 minutes. After the plate was washed with a washing liquid, TMB chromogenic solution was added and incubated for 15 minutes. The reaction was stopped by the addition of 1 M H2SO4, then the light absorption at 450 nm was read.

estrogen receptor (ER) = estrogen receptor (ER) (Homo sapiens (Human), UniProt P03372); assay: Inhibition of the binding of estrogen (E) to estrogen receptor (ER), MCF-7/ERE-luciferase reporter cells; type: cell-based; conditions: MCF-7/ERE-luciferase cells, 0.1 nM estradiol, 24 hours; read-out: IC50 value of inhibition effect on the binding of E to ER
Sequence of estrogen receptor (ER) (P03372 whole entry): as above
Experimental: The inhibition effect of the compounds on the binding of E to ER in vitro was tested by the following method.
The object of this experiment was to determine the inhibition effect of the compounds on the binding of E to ER, and the in vitro activity of the compounds was evaluated according to the IC50 value.
MCF-7/ERE-luciferase cells were inoculated into the MEM medium (hyclone, SH30024.01B) containing 10% charcoal stripped FBS (Moregate, FBSF), 1% sodium pyruvate (Sigma, Cat. No. S8636), 1% nonessential amino acids (Sigma, Cat. No. M7145) and 500 μg/ml G418 in a 96-well plate with a density of 30,000 cells/well, and the cells were incubated under the conditions of 37° C. and 5% CO2. […] After incubation for 24 hours, the medium was removed, then 0.1 nM estradiol (Sigma, Cat. No. E2758) and 10 μl of the drug diluted with the medium were added to each well, and the control group was added with DMSO. The plate was gently shaken and incubated in a incubator at 37° C., 5% CO2. After 24 hours, the cell culture medium was discarded.
The inhibition effect of the compounds of the present invention on the binding of E to ER was tested by the experiment described above.

[1] = Pharmacokinetics assay in BALB/C nude mice after intragastrical administration; type: in vivo; conditions: female, mouse, plasma, po, 3 mg/kg; for AUC: read-out: Area Under Curve AUC; for CL/F: read-out: Clearance CL/F (converted); for half-life: read-out: Half-Life t½ (converted); for MRT: read-out: Mean Residence Time MRT; for Cmax: read-out: Plasma Conc. Cmax
Experimental: BALB/C nude mice were used as test animals. The drug concentration in plasma at different time points was determined by LC/MS/MS after intragastrical administration of the compounds of Examples 10, 14, 20, 21, 57, 68, 71, 73, 74, 76 and 89 to BALB/C nude mice. The pharmacokinetic behavior of the compounds of the present invention was studied and evaluated in BALB/C nude mice.
Ninety-nine (99) female BALB/C nude mice were equally divided into 11 groups, which were purchased from SINO-BRITSH SIPPR/BK LAB. ANIMAL LTD., CO, with Certificate No.: SCXK (Shanghai) 2008-0016.
The appropriate amount of each test compound was weighed, and successively added with 9% PEG400+0.5% tween 80+0.5% PVP+90% aqueous solution of 0.5% CMC.
After an overnight fast, 99 female BALB/C nude mice were equally divided into 11 groups, and administered the test compounds intragastrically at an administration volume of 0.2 mL/10 g.
Blood (0.1 mL) was sampled (3 mice at each time point) at 0.5, 1.0, 2.0, 4.0, 6.0, 8.0, 11.0 and 24.0 hours after administration. The samples were stored in heparinized test tubes, and centrifuged for 10 minutes at 3,500 rpm to separate the blood plasma. The plasma samples were stored at −20° C. The plasma concentration of the test compounds in BALB/C nude mice after intragastrical administration was determined by LC/MS/MS.
Pharmacokinetic parameters of the compounds of Examples 10, 14, 20, 21, 57, 68, 71, 73, 74, 76 and 89 of the present invention are shown below.

Row | IC50 (MCF7 cells) [nM] | DC50 (ERα) [nM] | IC50 (estrogen receptor (ER)) [nM] | Structure (SMILES) | AUC [1] [ng·h/mL] | CL/F [1] [mL/min/kg] | half-life [1] [h] | MRT [1] [h] | Cmax [1] [ng/mL]
1 | 0.49 | 0.95 | 3.2 | CC1Cc2cc3c(cc2C(c2c(F)cc(/C=C/C(=O)O)cc2F)N1CC(C)(C)F)OCCO3 [Example 2, (E)-3-(3,5-difluoro-4-((6S,8R/6R,8S)-7-(2-fluoro-2-methylpropyl)-8-methyl-2,3,6,7,8,9-hexahydro-[1,4]dioxino[2,3-g]isoquinolin-6-yl)phenyl)acrylic acid] | – | – | – | – | –
2 | 0.34 | 1.43 | – | CCn1cc(-c2cc3c(cc2F)C(c2c(F)cc(/C=C/C(=O)O)cc2F)N(CC(C)(C)F)C(C)C3)cn1 [Example 17, (E)-3-(4-((1S,3R/1R,3S)-6-(1-ethyl-1H-pyrazol-4-yl)-7-fluoro-2-(2-fluoro-2-methylpropyl)-3-methyl-1,2,3,4-tetrahydroisoquinolin-1-yl)-3,5-difluorophenyl)acrylic acid] | – | – | – | – | –
3 | 1.03 | 4.2 | – | CCCn1cc(-c2ccc3c(c2)CC(C)N(CC(C)(C)F)C3c2c(F)cc(/C=C/C(=O)O)cc2F)cn1 [Example 18, (E)-3-(3,5-difluoro-4-((1S,3R/1R,3S)-2-(2-fluoro-2-methylpropyl)-3-methyl-6-(1-propyl-1H-pyrazol-4-yl)-1,2,3,4-tetrahydroisoquinolin-1-yl)phenyl)acrylic acid] | – | – | – | – | –
4 | 0.01 | 0.41 | 1.45 | CNC(=O)COc1ccc2c(c1)CC(C)N(CC(C)(C)F)C2c1c(F)cc(/C=C/C(=O)O)cc1F [Example 32, (E)-3-(3,5-difluoro-4-((1S,3R/1R,3S)-2-(2-fluoro-2-methylpropyl)-3-methyl-6-(2-(methylamino)-2-oxoethoxy)-1,2,3,4-tetrahydroisoquinolin-1-yl)phenyl)acrylic acid] | – | – | – | – | –
5 | 1.9 | 0.36 | 1.94 | CC1Cc2cc(N3CCOCC3)ccc2C(c2c(F)cc(/C=C/C(=O)O)cc2F)N1CC(C)(C)F [Example 41, (E)-3-(3,5-difluoro-4-((1S,3R/1R,3S)-2-(2-fluoro-2-methylpropyl)-3-methyl-6-morpholino-1,2,3,4-tetrahydroisoquinolin-1-yl)phenyl)acrylic acid] | – | – | – | – | –
6 | 0.08 | 2.12 | 0.87 | CC1Cc2c(ccc(-c3cnn(C)c3)c2F)C(c2c(F)cc(/C=C/C(=O)O)cc2F)N1CC(C)(C)F [Example 45, (E)-3-(3,5-difluoro-4-((1S,3R/1R,3S)-5-fluoro-2-(2-fluoro-2-methylpropyl)-3-methyl-6-(1-methyl-1H-pyrazol-4-yl)-1,2,3,4-tetrahydroisoquinolin-1-yl)phenyl)acrylic acid] | – | – | – | – | –
7 | 0.71 | 3.54 | 1.5 | CCn1cc(-c2ccc3c(c2F)CC(C)N(CC(C)(C)F)C3c2c(F)cc(/C=C/C(=O)O)cc2F)cn1 [Example 47, (E)-3-(4-((1S,3R/1R,3S)-6-(1-ethyl-1H-pyrazol-4-yl)-5-fluoro-2-(2-fluoro-2-methylpropyl)-3-methyl-1,2,3,4-tetrahydroisoquinolin-1-yl)-3,5-difluorophenyl)acrylic acid] | – | – | – | – | –
8 | 0.64 | 7.36 | 1.82 | CC1Cc2cc(-c3cnn(CCF)c3)ccc2C(c2c(F)cc(/C=C/C(=O)O)cc2F)N1CC(C)(C)F [Example 48, (E)-3-(3,5-difluoro-4-((1S,3R/1R,3S)-2-(2-fluoro-2-methylpropyl)-6-(1-(2-fluoroethyl)-1H-pyrazol-4-yl)-3-methyl-1,2,3,4-tetrahydroisoquinolin-1-yl)phenyl)acrylic acid] | – | – | – | – | –
9 | 1.63 | 6.29 | – | Cc1ncc(-c2ccc3c(c2)CC(C)N(CC(C)(C)F)C3c2c(F)cc(/C=C/C(=O)O)cc2F)o1 [Example 49, (E)-3-(3,5-difluoro-4-((1S,3R/1R,3S)-2-(2-fluoro-2-methylpropyl)-3-methyl-6-(2-methyloxazol-5-yl)-1,2,3,4-tetrahydroisoquinolin-1-yl)phenyl)acrylic acid] | – | – | – | – | –
10 | 0.2 | 0.69 | 0.82 | CC1Cc2cc(-c3cnn(C)c3)ccc2C(c2c(F)cc(/C=C/C(=O)O)cc2F)N1CC(C)(C)F [Example 55, (E)-3-(3,5-difluoro-4-((1S,3R/1R,3S)-2-(2-fluoro-2-methylpropyl)-3-methyl-6-(1-methyl-1H-pyrazol-4-yl)-1,2,3,4-tetrahydroisoquinolin-1-yl)phenyl)acrylic acid] | – | – | – | – | –

Row | Structure (SMILES) | IC50 (MCF7 cells) [nM] | DC50 (ERα) [nM] | IC50 (estrogen receptor (ER)) [nM] | AUC [1] [ng·h/mL] | CL/F [1] [mL/min/kg] | half-life [1] [h] | MRT [1] [h] | Cmax [1] [ng/mL]
11 | CC1Cc2cc(-c3cnn(C)c3)c(F)cc2C(c2c(F)cc(/C=C/C(=O)O)cc2F)N1CC(C)(C)F [Example 16, (E)-3-(3,5-difluoro-4-((1S,3R/1R,3S)-7-fluoro-2-(2-fluoro-2-methylpropyl)-3-methyl-6-(1-methyl-1H-pyrazol-4-yl)-1,2,3,4-tetrahydroisoquinolin-1-yl)phenyl)acrylic acid] | 0.47 | 3.11 | – | – | – | – | – | –
12 | CC1Cc2c(ccc3[nH]ncc23)C(c2c(F)cc(/C=C/C(=O)O)cc2F)N1CC(C)(C)F [Example 70, (E)-3-(3,5-difluoro-4-((6S,8R/6R,8S)-7-(2-fluoro-2-methylpropyl)-8-methyl-6,7,8,9-tetrahydro-3H-pyrazolo[4,3-f]isoquinolin-6-yl)phenyl)acrylic acid] | 0.14 | 0.77 | – | – | – | – | – | –
13 | CC1Cc2c(oc3cccc(F)c23)C(c2c(F)cc(/C=C/C(=O)O)cc2F)N1CC(C)(C)F [Example 73, (E)-3-(3,5-difluoro-4-((1R,3R/1S,3S)-5-fluoro-2-(2-fluoro-2-methylpropyl)-3-methyl-1,2,3,4-tetrahydrobenzofuro[2,3-c]pyridin-1-yl)phenyl)acrylic acid] | 0.2 | 0.76 | – | 3950 | 210 | 1.47 | 2.45 | 1490
14 | CCn1cc(-c2ccc3oc4c(c3c2)CC(C)N(CC(C)(C)F)C4c2c(F)cc(/C=C/C(=O)O)cc2F)cn1 [Example 76, (E)-3-(4-((1R,3R/1S,3S)-6-(1-ethyl-1H-pyrazol-4-yl)-2-(2-fluoro-2-methylpropyl)-3-methyl-1,2,3,4-tetrahydrobenzofuro[2,3-c]pyridin-1-yl)-3,5-difluorophenyl)acrylic acid] | 0.59 | 2.43 | – | 26900 | 31 | 4.53 | 5.7 | 5460
